The series in a line: Encapsulation of coumarin-6 in PEC nanoparticles by solvent displacement. Format: physicochemical. To be noted: solvent displacement method. How it is done:
Coumarin-6 is used (absorption: 485 nm, emission: 505-525 nm) as it allows to optically detect a potential phagocytosis process and furthermore, is a suitable model for a lipophilic agent. Due to its lipophilic characteristics and low water solubility, coumarin-6 can suitably be processed by the solvent displacement method, in order to achieve a high packaging rate. The encapsulation efficiency is very high and lies close to 100%. The preparation of the loaded nanoparticles is also performed using the modified solvent-displacement method as described in example 2. Coumarin-6 is used in a stock solution of 50 μg/ml in acetonitrile (the stock solution is stored in the refrigerator and protected by light e.g. by using aluminium foil) and the PEC 95 and 99 polymers as a 10 mg/ml stock solution in acetonitrile. All samples are set up in triplicate. For loading the nanoparticles the required amounts of PEC stock solution and coumarin-6 stock solution are mixed, filled up with acetonitrile up to 1.5 ml and vortexed (see table 2). This solution is then injected into the PVA solution according to the usual schema (see above).

With `CCN(CC)c1ccc2cc(-c3nc4ccccc4s3)c(=O)oc2c1` [coumarin-6], the Encapsulation efficiency is given as roughly 100%.

The values are drawn from patent US20110250243A1, “NANOPARTICLE COMPOSITIONS” (priority 2008, published 2011).
